In US20230048512A1, “COCRYSTALS OF PTEROSTILBENE AND COMPOSITIONS COMPRISING THEM” (CENTER FOR INTELLIGENT RESEARCH IN CRYSTAL ENGINEERING, S.L., priority 2019, published 2023):
“And” between values parts separate entries of the source, which are not always exact repeats. Equal values may be shown once. Blank lines part the entries; values can stand above or below the molecule they belong to.

Columns and labels:
[1] = Dissolution rate of tablets of the solid forms in FaSSIF v2 (small-scale dissolution assay, UV quantification, Noyes-Whitney fit); type: physicochemical; settings: FaSSIF v2 (pH 6.5), 25° C., 120 minutes, 3 mm tablet
Protocol: 1. Molar Extinction Coefficient (MEC) determination in FaSSIF v2 medium
Molar extinction coefficients of pterostilbene and of each coformer were determined by UV-metric titration using a GlpKaTM titrator (Sirius Analytical Instruments, UK). Briefly, a 10 mM stock solution of sample was prepared in DMSO. […] of sample stock solution and 0.25 mL of a 15 mM potassium phosphate buffer were added to 10 mL of a 0.15 M KCI solution, which in turn contained 17.9 mg of FaSSIF v2 powder. The pH of the sample solution was adjusted to 2 with 0.5 M HCI before starting the titration, and then the titration was done using 0.5 M KOH up to pH 12. The UV absorption spectra (between 250 and 450 nm) of the solution were recorded at each titrant addition by a fiber optic dip-probe. The collected data were refined through the RefinamentPro software, and the pKa values and Molar Extinction Coefficients obtained by Target Factor Analysis.
2. Dissolution Rate experiments • Tablet production: tablets of 3 mm diameter were prepared using a manual hydraulic tablet press (Applied Measurements Ltd, UK). The applied pressure was 100 Kg for 2 min. From 10 to 15 mg of each solid form, pterostilbene or cocrystal, were weighted. The total exposed surface area was 0.5 cm^2. • Medium: FaSSIF v2 (pH 6.5), with corresponding amount of phosphoric (28.4 mM) acid instead of maleic acid. • Dissolution tests were performed with a small-scale dissolution assay installed in a GlpKaTM titrator (Sirius Analytical Instruments, UK). • Dissolution time and temperature: 120 minutes and 25° C. • Procedure: 15 mL of FaSSIF v2 was added into the sample vial containing the tablet. Spectra collection started immediately after. Spectra were recorded every 30 seconds between 250 and 450 nm through a Sirius D-PAS spectrometer with a bifurcated optic fibre dip probe (Hellma Analytics). The medium was stirred at a constant rate.
The concentration of pterostilbene in solution at each time point is determined from the spectroscopic data by applying the Beer-Lambert law, using previously determined molar extinction coefficients of pure pterostilbene. Spectrum regions where signal is saturated (A>1.5) or presenting medium interferences were discarded. Then, the concentration data were converted into absolute sample quantities, and used to generate the graphs showing the sample quantity vs. time.
4. Determination of the dissolution rate
Dissolution rate is obtained through the fit of the first order Noyes-Whitney exponential equation to the data: […]
In this equation, [X]t is the weight in grams of compound in solution at the experiment time (min); S is the extrapolated solubility (g) of pterostilbene; kd is the rate constant for dissolution (min^−1); and to (min) is a term allowing for a temporal offset. Results are calculated using a refinement process in which S, kd and t0 are varied in order to minimize the root mean square deviation between the modelled concentrations and the measured concentrations. The dissolution rate (g min^−1) is given by the product kdS (T. Gravestock et al., 2011).

[2] = Pharmacokinetics of pterostilbene in rat plasma after single oral administration; type: in vivo, Male Sprague-Dawley rats; settings: for Plasma concentration of pterostilbene, Mean (arithmetic) / Plasma concentration of pterostilbene, individual animals 1-5: 20 mg/kg P56-VIII (13.5 mg/kg as pterostilbene) single oral
Protocol: In-life phase • Animals: Male Sprague-Dawley rats (weight: 417.9-458.6 g) • Administration: Oral (single dose) • Dose: 20 mg/kg P56 (pterostilbene, free base) 20 mg/kg P56-VIII (cocrystal of pterostilbene and picolinic acid; 13.5 mg/kg as pterostilbene free base) • Formulation: Suspension (0.5% carboxymethylceluulose, CMC) • Adm. volume: 10 ml/kg • Fed/fasted state: Fasted (at least 8 hours prior dosing) • Sampling: Six blood samples/animal (1, 2, 4, 6, 8 and 24 hours post-adm.) • Plasma samples: Plasma samples using K3-EDTA as anticoagulant.
Samples were immediately frozen at −80° C. until their analysis
Pharmacokinetic analysis was performed by non-compartmental pharmacokinetic analysis using Kinetica v5 software (Alfasoft Limited, Luton, UK). Descriptive statistics was performed using Microsoft Excel spreadsheet 2007 (Microsoft Inc, Redmond, US). Plasma bioanalysis was made by LC-MS/MS.
Concentration values below the lower limit of quantification (BLQ) were set to zero, whereas missing concentration values were not considered for statistical and pharmacokinetic evaluations. All computations used the nominal sampling times, nominal doses and concentrations levels were expressed as free base. The numerical data presented below were computer generated. Because of rounding, recalculation of derived values from individual data presented herein below could, in some instances, yield minor variation.
The area under the plasma concentration-time curve from 0 to t (AUC0-t) was determined by using the trapezoidal rule. […] The terminal half-life was determined according to the following rules: (a) time interval equal to at least 1.5 x t1/2, (b) regression analysis (straight line on the log-transformed scale) contained data from at least 3 different time points in the terminal phase and as many data points as possible (always including the last quantifiable concentration but excluding the Cmax), and (c) the coefficient of determination (r^2) was ≥0.85. If at least one of these three conditions was not fulfilled, the terminal half-life and the parameters depending on t1/2 were listed but flagged as not reliably calculated. If the percentage of extrapolated AUC was more than 20%, the individual AUCinf result were listed but flagged as not reliably calculated. Flagged parameters were not included in descriptive statistics and statistical testing procedures.

[3] = 20 mg/kg P56-VIII (13.5 mg as pterostilbene) single oral, fasted male SD rats
[4] = 20 mg/kg cocrystal (13.5 mg/kg as pterostilbene) vs 20 mg/kg P56, single oral, rats

Compound: COc1cc(/C=C/c2ccc(O)cc2)cc(OC)c1.ClCCl.Cn1c(=O)c2[nH]cnc2n(C)c1=O [Pterostilbene:theophylline cocrystal, cocrystal solvate of pterostilbene:theophylline: dichloromethane (1:1:1)]
dissolution rate [1]: 33.5 ± 6.7 nmol/min

Compound: COc1cc(/C=C/c2ccc(O)cc2)cc(OC)c1.COc1cc(/C=C/c2ccc(O)cc2)cc(OC)c1.NCCN [Pterostilbene:ethylendiamine cocrystal, pterostilbene:ethylendiamine cocrystal (2:1)]
dissolution rate [1]: 176.1 ± 12.6 nmol/min

Compound: COc1cc(/C=C/c2ccc(O)cc2)cc(OC)c1 [Pterostilbene (Form VI), Form VI of pterostilbene]
dissolution rate [1]: 7.4 ± 1.8 nmol/min

Compound: COc1cc(/C=C/c2ccc(O)cc2)cc(OC)c1.O=C(O)c1ccccn1 [cocrystal of pterostilbene:picolinic acid (1:1)]
AUC0-t, Mean [2, 3]: 4699 ng·h/mL
AUC0-t, individual animals 1-5 [2, 3]: 4384 ng·h/mL and 3776 ng·h/mL and 4059 ng·h/mL and 9824 ng·h/mL and 1452 ng·h/mL
AUCinf, Mean [2, 3]: 4772 ng·h/mL
AUCinf, individual animals 1-5 [2, 3]: 4422 ng·h/mL and 3805 ng·h/mL and 4178 ng·h/mL and 9855 ng·h/mL and 1602 ng·h/mL
Cmax, Mean [2, 3]: 567.8 ng/mL
Cmax, individual animals 1-5 [2, 3]: 695.2 ng/mL and 337.4 ng/mL and 513.3 ng/mL and 991.8 ng/mL and 301.1 ng/mL
t1/2 (terminal elimination half-life), Mean [2, 3]: 3.3 h
t1/2 (terminal elimination half-life), individual animals 1-5 [2, 3]: 3.7 h and 3.2 h and 5.1 h and 2.8 h and 1.9 h
tmax, Median [2, 3]: 2 h
tmax, individual animals 1-5 [2, 3]: 1 h and 6 h and 4 h and 2 h
Plasma concentration of pterostilbene, Mean (arithmetic) ([2]; fasted male SD rats, 1 h): 504.7 ng/mL
Plasma concentration of pterostilbene, individual animals 1-5 ([2]; fasted male SD rats, 1 h): 513.3 ng/mL and 980.0 ng/mL and 189.8 ng/mL and 695.2 ng/mL and 145.5 ng/mL
Plasma concentration of pterostilbene, Mean (arithmetic) ([2]; fasted male SD rats, 2 h): 514.3 ng/mL
Plasma concentration of pterostilbene, individual animals 1-5 ([2]; fasted male SD rats, 2 h): 462.8 ng/mL and 952.8 ng/mL and 301.1 ng/mL and 587.9 ng/mL and 266.9 ng/mL
Plasma concentration of pterostilbene, Mean (arithmetic) ([2]; fasted male SD rats, 4 h): 451.7 ng/mL
Plasma concentration of pterostilbene, individual animals 1-5 ([2]; fasted male SD rats, 4 h): 262.6 ng/mL and 991.8 ng/mL and 224.7 ng/mL and 538.5 ng/mL and 240.8 ng/mL
Plasma concentration of pterostilbene, Mean (arithmetic) ([2]; fasted male SD rats, 6 h): 305.6 ng/mL
Plasma concentration of pterostilbene, individual animals 1-5 ([2]; fasted male SD rats, 6 h): 150.6 ng/mL and 663.7 ng/mL and 153.8 ng/mL and 222.5 ng/mL and 337.4 ng/mL
Plasma concentration of pterostilbene, Mean (arithmetic) ([2]; fasted male SD rats, 8 h): 214.8 ng/mL
Plasma concentration of pterostilbene, individual animals 1-5 ([2]; fasted male SD rats, 8 h): 210.5 ng/mL and 449.2 ng/mL and 53.5 ng/mL and 136.4 ng/mL and 224.6 ng/mL
Plasma concentration of pterostilbene, Mean (arithmetic) ([2]; fasted male SD rats, 24 h): 7.54 ng/mL
Plasma concentration of pterostilbene, individual animals 1-5 ([2]; fasted male SD rats, 24 h, BLQ = <5 ng/ml): 16.4 ng/ml and 7.67 ng/ml and BLQ and 7.16 ng/ml and 6.50 ng/ml
increase in AUCinf compared to the P56 formulation [2, 4]: about 10 fold
increase in Cmax compared to the P56 formulation [2, 4]: around 6 fold
dissolution rate [1]: 427.8 ± 29.5 nmol/min

dissolution rate [1]: 230.4 ± 26.59 nmol/min
Compound: COc1cc(C=Cc2ccc(O)cc2)cc(OC)c1.COc1cc(C=Cc2ccc(O)cc2)cc(OC)c1.NCCN.O.O [pterostilbene:ethylendiamine:H2O cocrystal hydrate (2:1:2)]

Compound: COc1cc(/C=C/c2ccc(O)cc2)cc(OC)c1.COc1cc(/C=C/c2ccc(O)cc2)cc(OC)c1.O=C(O)c1ccccn1 [cocrystal of pterostilbene:picolinic acid (2:1)]
dissolution rate [1]: 351.3 ± 18.9 nmol/min

Compound: COc1cc(/C=C/c2ccc(O)cc2)cc(OC)c1.Cn1c(=O)c2c(ncn2C)n(C)c1=O [Pterostilbene:caffeine cocrystal, reference compound]
dissolution rate [1]: 45.4 ± 9.2 nmol/min

Compound: COc1cc(/C=C/c2ccc(O)cc2)cc(OC)c1.COc1cc(/C=C/c2ccc(O)cc2)cc(OC)c1.Cc1cnc(C)c(C)n1 [cocrystal of pterostilbene:2,3,5-trimethylpirazine (2:1)]
dissolution rate [1]: 52.0 ± 5.8 nmol/min
